For assay [1], the target named is MAPK14 (human) (UniProt Q16539). As to the kind of experiment: Inhibition of MAPK14 Kinase Activity by PHAS-I Assay. The note with it: for inhibition: concentration not given here.
Assay [2] shares this target. Kind of assay: Inhibition of LPS Stimulated TNF Production by U937 Cells. The note with it: for inhibition: concentration not given here.

SMILES strings stand for the structures.

The values that follow come from the Kinase Knowledgebase extract (Sharma et al. 2016).

MAPK14 (human), sequence (Q16539 whole entry, looked up): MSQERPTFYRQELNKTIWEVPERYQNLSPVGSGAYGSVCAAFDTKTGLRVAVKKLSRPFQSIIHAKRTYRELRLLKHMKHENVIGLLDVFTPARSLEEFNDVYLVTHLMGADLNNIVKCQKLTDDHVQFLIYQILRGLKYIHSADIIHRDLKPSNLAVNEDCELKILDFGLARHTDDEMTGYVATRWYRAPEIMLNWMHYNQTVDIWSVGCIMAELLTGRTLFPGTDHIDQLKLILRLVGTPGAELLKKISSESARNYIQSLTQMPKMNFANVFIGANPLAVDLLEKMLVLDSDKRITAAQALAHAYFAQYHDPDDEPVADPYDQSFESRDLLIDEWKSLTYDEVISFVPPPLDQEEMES

`Cc1c(-c2ccncc2)c(-c2ccc(F)cc2)nn1CC(=O)NC1CCN(CCc2c[nH]c3ccccc23)CC1` had an inhibition on MAPK14 (human) [1] of 84%.
`O=S(=O)(NCc1[nH]nc(-c2ccc(F)cc2)c1-c1ccncc1)c1ccc2ccccc2c1` came in with an IC50 against MAPK14 (human) [1] of 0.28 µM.
`COc1ccc(-c2[nH]nc(C)c2-c2ccncc2)cc1Cl` gave an IC50 against MAPK14 (human) [1] of 0.1 µM.
At MAPK14 (human) [1], `NC(=O)NCCCc1[nH]nc(-c2ccc(F)cc2)c1-c1ccncc1` came in with an inhibition of 90%.
For the compound `COCC(=O)N[C@H]1CC[C@@H](c2[nH]nc(-c3ccc(Cl)cc3)c2-c2ccncc2)CC1`, the IC50 at MAPK14 (human) [1] amounted to 0.077 µM.
Consider `C=CCOC(=O)NCCc1[nH]nc(-c2ccc(F)cc2)c1-c1ccncc1`, for which the inhibition against MAPK14 (human) [1] is 86%.
For `CN(C(=O)NCCCc1[nH]nc(-c2ccc(F)cc2)c1-c1ccncc1)c1ccccc1`, at MAPK14 (human) [1], the inhibition was determined as 76%.
Compound `COCCN(CC1CCCCC1)C(=O)Cn1nc(-c2ccc(F)cc2)c(-c2ccncc2)c1C` gave an inhibition against MAPK14 (human) [1] of 63%.
Regarding `CCOC(=O)NCCCc1[nH]nc(-c2ccc(F)cc2)c1-c1ccncc1`, the inhibition against MAPK14 (human) [1] worked out at 94%.
Still for that read-out and setting: for `O=C(NCCCc1[nH]nc(-c2ccc(F)cc2)c1-c1ccncc1)NCCc1ccccc1` the value was 82%.
As for `CCCCNS(=O)(=O)c1cccc(NC(=O)Cn2nc(-c3ccc(F)cc3)c(-c3ccncc3)c2C)c1`, the inhibition at MAPK14 (human) [1] was found to be 77%.
The compound `O=C(NCCc1[nH]nc(-c2ccc(F)cc2)c1-c1ccncc1)C1CC1` registered an inhibition against MAPK14 (human) [1] of 85%.
The compound `Cc1c(-c2ccncc2)c(-c2ccc(F)cc2)nn1CC(=O)Nc1ccc(-n2ccc(C(F)(F)F)n2)cc1` yielded an inhibition against MAPK14 (human) [1] of 87%.
`CC(C)COC(=O)NCCCc1[nH]nc(-c2ccc(F)cc2)c1-c1ccncc1` showed an inhibition at MAPK14 (human) [1] of 76%.
On MAPK14 (human) [1], `Cc1c(-c2ccncc2)c(-c2ccc(F)cc2)nn1CC(=O)N(C)CC(N)=O` returned an inhibition of 60%.
With `Cc1c(-c2ccncc2)c(-c2ccc(F)cc2)nn1CC(=O)NC1CCSC1=O` (stereo not drawn), the inhibition against MAPK14 (human) [1] came to 69%.
The same measure, in the same setting: for `CCCCS(=O)(=O)NCCCc1[nH]nc(-c2ccc(F)cc2)c1-c1ccncc1` the value was 87%.
`Clc1ccc(-c2n[nH]c(SCOC3CCCCO3)c2-c2ccncc2)cc1` (stereo not drawn) displayed a half-inhibitory concentration (IC50) on MAPK14 (human) [1] of 0.11 µM.
`COC(=O)C(NC(=O)Cn1nc(-c2ccc(F)cc2)c(-c2ccncc2)c1C)C(C)C` (stereo not drawn) displayed an inhibition against MAPK14 (human) [1] of 82%.
On to `CNCCCNC(=O)CSc1[nH]nc(-c2ccc(Cl)cc2)c1-c1ccncc1`, for which the IC50 at MAPK14 (human) [1] amounted to 1.66 µM.
Consider `Cc1c(-c2ccncc2)c(-c2ccc(F)cc2)nn1CC(=O)Nc1cccc(F)c1`, for which, on MAPK14 (human) [1], the inhibition was determined as 92%.
In the case of `CCOC(=O)c1cc(-c2ccc(NC(=O)Cn3nc(-c4ccc(F)cc4)c(-c4ccncc4)c3C)cc2)oc1C`, on MAPK14 (human) [1], the inhibition amounted to 87%.
In the case of `Cc1c(-c2ccncc2)c(-c2ccc(F)cc2)nn1CC(=O)Nc1ccccc1C(=O)NC(C)c1ccccc1` (stereo not drawn), the inhibition against MAPK14 (human) [1] stood at 86%.
In the case of `COCC(C)NC(=O)Cn1nc(-c2ccc(F)cc2)c(-c2ccncc2)c1C` (stereo not drawn), the inhibition against MAPK14 (human) [1] is 60%.
Regarding `Cc1c(-c2ccncc2)c(-c2ccc(F)cc2)nn1CC(=O)N1CCOCC1`, at MAPK14 (human) [1], the inhibition was determined as 70%.
`COc1ccc(CCN(CCC#N)C(=O)Cn2nc(-c3ccc(F)cc3)c(-c3ccncc3)c2C)cc1OC` displayed an inhibition on MAPK14 (human) [1] of 72%.
Turning to `Cc1c(-c2ccncc2)c(-c2ccc(F)cc2)nn1CC(=O)N1CCSC1c1ccco1` (stereo not drawn), the inhibition at MAPK14 (human) [1] was 78%.
Take `CCCOC(=O)NCCc1[nH]nc(-c2ccc(F)cc2)c1-c1ccncc1`: the inhibition on MAPK14 (human) [1] worked out at 78%.
`COc1ccc(S(=O)(=O)NCCCc2[nH]nc(-c3ccc(F)cc3)c2-c2ccncc2)cc1`: the inhibition at MAPK14 (human) [1] stood at 71%.
`O=C(NCc1[nH]nc(-c2ccc(F)cc2)c1-c1ccncc1)c1cc(Cl)cc(Cl)c1`: on MAPK14 (human) [1], the IC50 was 2.67 µM.
`Cc1c(-c2ccncc2)c(-c2ccc(F)cc2)nn1CC(=O)Nc1ccccc1C(F)(F)F`: the inhibition against MAPK14 (human) [1] is 86%.
Compound `O=C(NCCCc1[nH]nc(-c2ccc(F)cc2)c1-c1ccncc1)c1ccccc1` yielded an inhibition against MAPK14 (human) [1] of 78%.
Take `CCc1cccc(CC)c1NC(=O)Cn1nc(-c2ccc(F)cc2)c(-c2ccncc2)c1C`: the inhibition on MAPK14 (human) [1] came out at 70%.
For `Cc1c(-c2ccncc2)c(-c2ccc(F)cc2)nn1CC(=O)Nc1ccccc1C(=O)OC(C)C`, the inhibition on MAPK14 (human) [1] is 88%.
On the same count and under the same terms, for `COC(=O)[C@H](CC(C)C)NC(=O)Cn1nc(-c2ccc(F)cc2)c(-c2ccncc2)c1C` the value was 47%; for `Cc1c(-c2ccncc2)c(-c2ccc(F)cc2)nn1CC(=O)N(C)CCc1ccncc1`, 38%.
In turn, `C[C@H](NS(=O)(=O)c1ccc(Cl)c(Cl)c1)c1[nH]nc(-c2ccc(F)cc2)c1-c1ccncc1` showed an inhibition against MAPK14 (human) [2] of 90%.
Consider `Cc1n[nH]c(-c2ccc(F)c(F)c2)c1-c1ccncc1`, for which the IC50 against MAPK14 (human) [2] came out at 0.329 µM. This lies in the sub-micromolar range.
Compound `C[C@@H](NC(=O)c1ccccc1C(F)(F)F)c1[nH]nc(-c2ccc(F)cc2)c1-c1ccncc1` had an IC50 at MAPK14 (human) [2] of 0.64 µM.
Take `C[C@H](NS(=O)(=O)c1ccc(F)cc1Cl)c1[nH]nc(-c2ccc(F)cc2)c1-c1ccncc1`: the inhibition against MAPK14 (human) [2] was 85%.
At MAPK14 (human) [2], `COc1ccc(NC(=O)N[C@H](C)c2[nH]nc(-c3ccc(F)cc3)c2-c2ccncc2)c(OC)c1` yielded an inhibition of 40%.
Take `O=C(NCCc1[nH]nc(-c2ccc(F)cc2)c1-c1ccncc1)Nc1ccc(F)cc1`: on MAPK14 (human) [2], the IC50 was determined as 2.71 µM and the inhibition worked out at 39%.
